# Assay results taken from a melting point compilation (Tetko et al.; mined from patent text by program, amines drawn as free bases though some values may be those of a salt).
row,melting point,SMILES
1,176 to 179 °C,Nc1ccc(S(=O)(=O)NC(=S)NC23CC4CC(CC(C4)C2)C3)cc1
2,192 to 195 °C,Cc1ccc2c(c1)S(=O)(=O)N=CN2C1CC1
3,113 to 114 °C,COc1cc(CO)cc(OC)c1OCc1nc(-c2ccccc2)oc1C
4,157 to 158 °C,CC(C)(C)OC(=O)Nc1ccc(C#Cc2ccc(F)cc2)cc1[N+](=O)[O-]
5,255 to 261 °C,CN(C)C1CN(c2cc3c(cc2F)c(=O)c(C(=O)O)cn3C2CC2)C1
6,90 to 91 °C,CCOC(=O)C1OC1C(=O)NCc1ccccc1 (stereo unspecified)
7,154 to 159 °C,CC1=C(c2ccccc2)C(=O)N(C(C)(C)c2cc(Cl)c(F)c(Cl)c2)CC1
8,62 °C,COc1ccc2c(Br)csc2c1
9,210 to 212 °C,CCCSc1ncc(CC(NC(=O)c2ccccc2)C(=O)O)n1Cc1ccccc1Cl (stereo unspecified)
10,130 °C,CCCCCCCC(=O)c1ccc(OC(C)=O)c(C(=O)O)c1
11,102 to 103 °C,CCOC(=O)/C=C/c1ccc(Cl)c(Cl)n1
12,162 to 164 °C,O=C(O)CCC(=O)c1cccc([N+](=O)[O-])c1
13,186 to 187 °C,Clc1ccc(-c2cc(C3CCN(CC4CCCCC4)CC3)n[nH]2)cc1
14,142 to 144 °C,COC(=O)NC[C@H]1CN(c2ccc(-c3nc(Cn4cccn4)cs3)c(F)c2)C(=O)O1
15,98 to 100 °C,O=C(CCCc1cccnc1)N1CCC(CC(c2ccccc2)c2ccccc2)CC1
16,84 to 85 °C,O=C1CCCCC1C(C[N+](=O)[O-])c1ccc(F)cc1 (racemic)
17,248 °C,CS(=O)(=O)c1ccc(-c2nn(Cc3cccnc3)c(=O)cc2-c2ccc(Cl)cc2)cc1
18,123 °C,COC(=O)[C@@H]1CC(=O)N(c2ccc(O)cc2)C1
19,173 to 175 °C,CCN1CCN(c2nc(-c3ccc(OC)cc3)nc3sc(C#N)c(C)c23)CC1
20,133 °C,COc1ccc(C2CSc3ccccc3N(CCO)C2=O)cc1 (stereo unspecified)
21,172 to 174 °C,ClCc1ccc2c(c1)Cc1cccnc1O2
22,75 to 77 °C,Cc1ccc2c(Cl)ccnc2c1N
23,185 to 189 °C,CC(C)c1cc(Cl)cc2c1OC(C(F)(F)F)C(C(=O)O)=C2 (stereo unspecified)
24,195 to 204 °C,O=c1[nH]c2ccc(C3=NOC(CN4CCC(O)(Cc5ccc(F)cc5)CC4)C3)cc2o1 (stereo unspecified)
25,169 to 171 °C,CC(C)CC(=O)C1CCC2C3CN(C(C)(C)C)C4=CC(=O)CCC4(C)C3CCC12CC(=O)O (stereo unspecified)

row,melting point,SMILES
1,159 to 160 °C,CC(C)(C)OC(=O)CS(=O)(=O)c1cccc(-c2nc(=O)c3ccccc3s2)n1
2,262 to 263 °C,COc1ccc2cc(C(=O)O)oc(=O)c2c1OC
3,174 to 175 °C,COc1ccc(CNc2nn(CC(=O)OC(C)(C)C)c(=O)c3ccc(C#N)cc23)cc1Cl
4,147 to 162 °C,C=C1CC2C3CCC4=CC(=O)CCC4(C)C3=CCC2(C)C1(O)C(C)=O (stereo unspecified)
5,224 to 225 °C,CN(c1cccc2cc(C3=NCC4(CCC5(CC4)OCCO5)S3)[nH]c12)S(=O)(=O)c1cccs1
6,99 to 100 °C,COc1ccc(C2(C#Cc3cccc(-c4noc(C(F)(F)F)n4)c3)CCCC(=O)C2)cc1OC1CCCC1 (stereo unspecified)
7,46 °C,CCCCCCCCCCCCCCC(=S)NCCCN1CCOCC1
8,178 to 179 °C,COc1ccc(N2CCN(Cc3n[nH]c4c(F)cccc34)CC2)cc1
9,122 °C,C(=Nc1ncc[nH]1)c1ccccc1
10,164 to 165 °C,COCCOCCOC(=O)C1C=Nc2c(ccc3cccnc23)C1=O (stereo unspecified)
11,214 to 215 °C,O=C(NNS(=O)(=O)c1ccccc1)c1ccc(NCc2ccccc2)cc1
12,94 to 95 °C,CC(C)(C)OC(=O)NCc1ccccc1N
13,114 to 117 °C,CN(C)CCc1cccc2ccc(CS(=O)(=O)N3CCOCC3)cc12
14,191 to 194 °C,C[C@H](CO)Nc1nc(SCc2ccno2)nc2[nH]c(=O)cnc12
15,150 to 152 °C,N#CCCN1CC2C(C1)C2Nc1ncc2cc(-c3ccccc3Cl)c(=O)n(C3CC3)c2n1 (stereo unspecified)
16,120 °C,O=c1nc(C2CC2)sc2ccccc12
17,134 to 135 °C,CCOC(=O)CNC(=O)[C@@H]1CS[C@H](c2ccccc2O)N1C(=O)CCSC(=O)c1ccccc1
18,139 to 141 °C,Nc1c(CC(=O)O)cccc1S(=O)(=O)c1ccc(Cl)cc1
19,162 to 163 °C,N#CC(c1ccc(Cl)cc1)c1c(Cl)cc(NN=Cc2ccccc2)cc1Cl (stereo unspecified)
20,78 to 79 °C,CCCCN(C(=O)c1cc(C)oc1C)C1CC(C)(C)NC(C)(C)C1
21,270 to 272 °C,Cc1ccc(-c2cc3ccc(C(=O)O)cc3o2)cc1
22,108 to 110 °C,O=C(C1CC1)N1CCCc2oc(-c3ccccc3)cc2C1
23,152 to 154 °C,CCOC(=O)c1ccccc1Nc1c([N+](=O)[O-])cc(C(F)(F)F)cc1[N+](=O)[O-]
24,108 °C,CC1C(=O)N(c2ccccc2)C(=S)N1c1ccc(Oc2ccccc2Cl)cc1 (stereo unspecified)
25,133 to 135 °C,NCC(=O)Nc1ccc(Cl)cc1C(=O)c1c(F)cccc1F

row,melting point,SMILES
1,261 to 262 °C,CN(C)c1nnc(Br)c(=O)[nH]1
2,58 to 59 °C,COc1cc(C(OC)OC)cc([N+](=O)[O-])c1O
3,77 to 78 °C,CCOC(=O)[C@H]1[C@@H]2C=CC(=O)[C@@H]21 (racemic)
4,265 to 267 °C,CCn1cc(C(=O)O)c(=O)c2cc(F)c(Cl)nc21
5,192 °C,O=[N+]([O-])c1cc(C(F)(F)F)cc2nc(N3CCN(c4ncccc4C(F)(F)F)CC3)[nH]c12
6,154 to 156 °C,Cc1nnc2ccc(-c3ccsc3)nn12
7,267 to 269 °C,CCNC(=O)NC1(c2ccc(C(C)C)cc2OC)C(=O)c2ccccc2C1=O
8,183 to 185 °C,COC(=O)c1ccc(-c2ccc(-c3ccccc3)c(-c3ccc4c(c3)C(C)(C)CCC4(C)C)c2)c(O)c1
9,44 °C,CCSc1ccc2c3c([nH]c2c1)CCCCC3C (stereo unspecified)
10,163 °C,CC(C)(C)C1CSC2(CCC(C)(C(Cl)Cl)CC2)SC1 (stereo unspecified)
11,102 to 103 °C,O=[N+]([O-])c1ccc2c(cnn2Cc2ccccc2[N+](=O)[O-])c1
12,148 to 149 °C,C[C@@H](N1CCN(c2ccc(OC(F)(F)C(F)F)cc2)C1=O)[C@@]1(c2ccccc2F)CO1
13,> 300 °C,CC(C)(C)c1cc(C2NC(=O)NC2c2ccccc2)cc(C(C)(C)C)c1O (stereo unspecified)
14,97 to 99 °C,CC=NN(C(=O)c1ccc(Cl)cc1)c1ccc(OC)c(F)c1
15,205 to 207 °C,CC(=O)SCCC(=O)N1NC(=O)CC1C(=O)O (stereo unspecified)
16,138 to 140 °C,COC(=O)c1ccc(O)c(C(=O)CC(=O)C=Cc2ccccc2)c1
17,188 to 189 °C,O=C1C(=O)N2CCCc3cc(Cl)cc1c32
18,231 to 233 °C,CC(C)(C)c1cc(-c2nc3n(c2CN2CCOCC2)CCS3)cc(C(C)(C)C)c1O
19,205 to 206 °C,CONC(=O)C=C1SC(Nc2c(Cl)cccc2Cl)=NC1=O
20,163 to 164 °C,COc1ccc(N(C(C)=O)C2=NN(c3ccc([N+](=O)[O-])cc3)C(=O)C2Br)cc1 (stereo unspecified)
21,132 to 134 °C,O=C(NCCn1ccnc1)c1sc2ccccc2c1Cl
22,123 °C,c1ccc(C(c2ccc3[nH]c(-c4ccccn4)nc3c2)n2ccnc2)cc1 (stereo unspecified)
23,217 °C,N#Cc1cc(F)cc(-c2cc(Br)c3c(c2)C2(CCCCC2)C(=O)N3)c1
24,76.5 to 77 °C,CCCCCCNC(=O)c1cc(OC(C)=O)ccc1OC(C)=O
25,161 to 162 °C,"CN1C(=O)CCC2(C)c3ccc(Sc4cccc5ccccc45)cc3CCC12 (single isomer, unassigned; (+))"

row,melting point,SMILES
1,81 to 82 °C,CCOC(=O)C(=CNc1ccn(-c2ccccc2)n1)C(=O)OCC
2,173 to 182 °C,S=C(NCCc1ccc(Cl)cc1)Nc1nc2ccccc2[nH]1
3,189 to 192 °C,CC(C)c1ccc2c(c1)c(SC(C)(C)C)c(CC(C)(C)C(=O)O)n2Cc1ccc(Cl)cc1
4,240 to 242 °C,O=C(O)Cn1c(-c2cccc(C(F)(F)F)c2)nc2cccnc21
5,202 to 205 °C,C[C@]1(CN2CCN(c3cc(-c4ccccc4)nc(-c4ccccc4)n3)CC2)Cn2cc([N+](=O)[O-])nc2O1
6,161 to 162 °C,COc1cc(CCN(C)Cc2ccc(OC)c(OC)c2)ccc1NC(=O)c1cccc2c(=O)c3cccc(F)c3[nH]c12
7,244 to 245 °C,COc1cc2c(N)nc(Cl)nc2c(OC)c1OC
8,172 to 174 °C,CCCCNC(=O)c1cccc(-c2ccnc3c(C(=O)c4cccs4)cnn23)c1
9,171 to 172 °C,CCn1c(=O)c2c(nc(/C=C/c3ccc(C)cc3)n2C)n(CC)c1=O
10,89 to 94 °C,Cc1nccc(NC(=O)C(CC2CCCC2)c2ccc(S(C)(=O)=O)c(C#N)c2)n1 (stereo unspecified)
11,193 to 194 °C,Cn1cc(C(=O)NCc2ccc(Cl)cc2)c(=O)c2cc(CN3CCOc4ccccc43)ccc21
12,95 to 100 °C,COc1ccc(Cn2ncnc2CO)cc1
13,158 to 160 °C,CCC12CCC3c4ccc(OC)cc4CCC3C1C=CC2=O (stereo unspecified)
14,236 to 237 °C,O=C(Nc1ccccc1C(=O)O)c1nnc(S)o1
15,183 to 185 °C,CCN(CC)CC1CCCCN1CCNC(=O)N1c2cc(C)ccc2C(=O)Nc2cccnc21 (stereo unspecified)
16,103 °C,CC(C)(C)OC(=O)N(Cc1csc2ccccc12)S(N)(=O)=O
17,218 to 220 °C,CCc1cc(CC)c2oc(C(=O)O)cc(=O)c2c1O
18,86.5 to 89.5 °C,CCCCOCCc1ccc(C2=CCC(c3ccc(Br)cc3)CC2)cc1 (stereo unspecified)
19,197 °C,O=C(NC(=O)c1c(F)cccc1F)Nc1ccc(C(F)(F)F)cc1F
20,88 to 89 °C,COC(=O)c1cccc(-c2cccc([N+](=O)[O-])c2)c1
21,199 to 200 °C,Cn1cc(-c2cc3cccnc3[nH]2)c2cc(O)ccc21
22,78 to 80 °C,CC(=O)OC1C=C(Br)C(=O)CO1 (stereo unspecified)

row,SMILES,melting point
1,CC(C)(C)OC(=O)c1ncn2c1C1C=CCN1C(=O)c1c(Cl)cccc1-2 (stereo unspecified),227 to 229 °C
2,Clc1ccc(OC2CC3CCC(C2)N3Cc2nccs2)cc1Cl (stereo unspecified),123 to 124 °C
3,NC(=O)c1cn(CC2CC2)c2ccccc12,170 °C
4,CCN(CC)C(=O)C(C)N1C(=O)C(NC(=O)OCc2ccccc2)N=C(c2ccccc2)c2ccccc21 (stereo unspecified),170 to 171 °C
